{"source": "patent US5608143A", "about": "“External regulation of gene expression” (E. I. Du Pont de Nemours and Company, priority 1994, dated 1997)", "key": {"[1]": {"system": "5-2 gene (In 5-2 mRNA)", "experiment": "RNA slot blot / Northern analysis of 5-2 mRNA in roots of chemically treated corn", "type": "in vivo, corn (Missouri 17)", "parameters": "In5-2 induction level: key to the marks not given beside the values", "experimental": "Details of the techniques used to perform Example 3 are presented in Example 1. The cDNA library made from poly (A)+ RNA from the roots of N-(aminocarbonyl)-2-chlorobenzenesulfonamide-treated Missouri 17 corn plants described in Example 1 was analyzed for additional cDNA clones representing N-(aminocarbonyl)-2-chlorobenzenesulfonamide-induced mRNAs. […] This colony was designated In 5-2.\nA small scale plasmid preparation was performed on an overnight culture of In 5-2 and an aliquot of the plasmid, designated pIn 5-2, was nick-translated as described earlier. Slot blot analysis was performed as described in Example 1 using nick-translated In 5-2 plasmid. […] This plasmid was designated pIn 5-2.\nAn aliquot of the small scale plasmid preparation of pIn 5-2 was digested to completion with PSt I and analyzed by agarose gel electrophoresis. The cDNA insert of the plasmid was excised as a single 420 bp Pst I fragment. Plasmid pin 5-2 was nick-translated and used to probe a Northern blot of RNA from both untreated and N-(aminocarbonyl)-2-chlorobenzenesulfonamide-treated roots.\nThe ability at various substituted benzenesulfonamides and related compound to induce the expression of the 2-1, 2-2, and 5-2 genes of Missouri 17 corn was evaluated. Corn seeds were germinated and grown hydroponically in 2 liter beakers as described in Example 1. On the tenth day, plants were transferred into fresh 0.5× Hoagland's solution containing the chemical to be tested. Root tissue was harvested from the plants after six hours of chemical treatment, quick-frozen by immersion in liquid N2, and stored at -80° C. until analyzed.\nDetails of the RNA isolation and slot blot analysis procedures are presented in Example 1. Total RNA was prepared from the root tissue of plants that had been treated with various chemicals using the previously described guanidine thiocyanate procedure. Replicate blots, each consisting of 2 μg of total RNA from tissues treated with each of the chemicals shown in tables 8 and 9, were prepared on nitrocellulose membranes using a Minifold II® Slot-blotter (Schleicher & Schuell) following the manufacturer's recommeneded procedure. Replicate blots were prehybridized and hybridized with cDNA probes made by nick translation of the purified cDNA inserts from plasmid pIn 2-1, pIn 2-2-3, and pIn 5-2. Slot blots were washed as described in Example 1 and exposed to Kodak X-OMAT XAR-5 film for 24 hours at -80° C. using a single Du Pont Lightning Plus intensifying screen. Film was developed using a Kodak X-OMAT film processor. The abililty of a chemical to induce the mRNA encoded by the three inducible genes was evaluated in one of two ways. Qualitative evaluation was performed by direct visual comparison of the autoradiographic signal intensities on the films for the hybridization of each probe to the different RNA samples. Quantitative evaluation was performed by cutting each slot containing hybridized RNA from the blot, immersing it in 2 ml of Du Pont ECONOFLUOR® scintillation cocktail and counting the radioactivity in each slot in a scintillation counter. The net amount of radioactivity hybridizing to N-(aminocarbonyl)-2-chlorobenzenesulfonamide-treated RNA after subtraction of radioactivity hybridizing to untreated RNA is presented in Table 15."}, "[2]": {"system": "petunia P6.1 gene (and endogenous tobacco T2.1 gene)", "experiment": "RNAse protection analysis of petunia P6.1 gene expression in transgenic tobacco roots and callus", "type": "in vivo, tobacco (SR1)", "experimental": "Tobacco (SR1) was used as the recipient for transformation. In vitro grown leaf material was sliced into strips using a scalpel. The strips were dipped into Agrobacterium tumefaciens containing the construct P627 (bacterial concentration was 0.2 A550). Leaf pieces were placed on media containing MS major salts, MS minor salts, B5 vitamins, MS iron, 3% sucrose, 0.1 μg/l NAA, […], 0.7% TC agar, pH 5.8 and incubated for 2-3 days under growlights. Leaf material was removed and washed by placing in liquid culture medium containing […] and rotating gently for 3-4 hours. The leaf pieces were then placed on medium containing 100 μg/l carbinicillin and 300 mg/l kanamycin and transferred every 2 weeks. Shoots appeared after 2-8 weeks and were transferred to rooting medium (0.5× MS major salts, MS minor salts, iron, 1% sucrose, 0.8% agar, and 2 μM indolebutyric acid). Eight independent transformed plants were regenerated. […]\nThe inducibility of the P6.1 gene was also examined in callus tissue derived from transformed tobacco plants. […] The inducibility of both the introduced petunia P6 gene and the endogenous tobacco T2.1 gene by N-(aminocarbonyl)-2-chlorobenzanesulfonamide treatment was evaluated using the RNAse protection analysis as described above. […]"}, "[3]": {"settings": "hydroponic treatment, corn roots"}}, "data": [{"compound": "NC(=O)NS(=O)(=O)c1ccccc1Cl", "values": [{"measurement": "In5-2 induction level", "setting": "[1]; hydroponic application, 100 ppm", "value": "+++++"}, {"measurement": "hybridization of pIn 5-2 to root RNA (Northern blot)", "setting": "[1]; [3]", "value": "induced in root tissue by chemical treatment"}, {"measurement": "hybridization of pIn 5-2 to root RNA (slot blot)", "setting": "[1]; [3]", "value": "hybridizes strongly"}, {"measurement": "expression of petunia P6 gene and endogenous tobacco T2.1 gene in callus (RNAse protection)", "setting": "[2]; callus from transformed tobacco, 100 mg/l, 6 and 20 hours", "value": "strong expression of both genes was observed"}, {"measurement": "inducible expression of the transferred petunia P6.1 gene in roots (RNAse protection)", "setting": "[2]; transgenic tobacco (P627), hydroponic 200 mg/l, six hours", "value": "All eight transformants demonstrated inducible expression"}]}]}
